Values quoted from earlier work, collected in patent US10307392B2, “Compound and method for treatment of diseases and disorders” (priority 2017, dated 2019).
Where two headings read alike, the source gives them in different places.

What was measured:
[1] = system: rat cortical neuron cultures exposed to toxic levels of the neurotransmitter, glutamate; settings: for prevention of glutamate toxicity: isolated or synthetic cannabinoid, in vitro neuronal cultures exposed to glutamate; for NMDA, AMPA and kainate receptor mediated neurotoxicity: not affected by cannabinoid receptor antagonist
[2] = system: neuronal cultures
[3] = cyclic voltametry and fenton reaction-based system
[4] = system: PBQ-induced writhing in mice; settings: for reducing analgesia and inflammation: mouse, in vivo
[5] = system: females with severe somatoform and dysautonomic syndrome following HPV vaccination; parameters: dose or concentration left out as unconfirmed; settings: up to a maximum dose of CBD per day; 12 females
[6] = system: Parkinson's disease; settings: oral, started with 150 mg/day, 4 weeks
[7] = system: subjects with noninsulin-treated type 2 diabetes
[8] = system: spasticity; settings: in vivo
[9] = system: patients receiving Marinol
[10] = system: MS patients; settings: 13 weeks' follow-up

Compound: C=C(C)[C@@H]1CCC(C)=C[C@H]1c1c(O)cc(CCCCC)cc1O [CBD, cannabidiol]
- protective capacity against glutamate toxicity, head to head with other antioxidants [1]: superior to both alpha-tocopherol and ascorbate
- prevention of glutamate toxicity [1]: prevented to some extent
- NMDA, AMPA and kainate receptor mediated neurotoxicity [1]: reduced
- hydroperoxide toxicity in neurons [2]: reduce hydroperoxide toxicity
- antioxidant activity [3]: potent antioxidants
- inhibition of PBQ-induced writhing ([4]; oral administration, mice): most effective
- tolerability [5]: well tolerated
- adverse effect during the treatment [6]: no adverse effect
- tolerability ([7]; 200 mg CBD per day, 62 subjects in study): well tolerated

Compound: CCCCCc1cc(O)c2c(c1)OC(C)(C)c1ccc(C)cc1-2 [CBN, cannabinol]
- reducing analgesia and inflammation [4]: least effective

Compound: CCCCCCC(C)(C)c1cc(O)c2c(c1)OC(C)(C)C1CCC(=O)CC21 (stereo not shown) [Cesamet]
- reducing spasticity [8]: positive results

Compound: CCCCCc1cc(O)c2c(c1)OC(C)(C)[C@@H]1CCC(C)=C[C@@H]21 [Marinol]
- reducing spasticity [8]: positive results
- patients reporting cannabinoid dose-related psychotropic effect ([9]; antiemetic clinical trials): 24%
- patients reporting a CNS adverse reaction ([9]; during the first 2 weeks): About 25%
- patients reporting a CNS adverse reaction ([9]; each week for the next 6 weeks): about 4%
- patients reporting cannabinoid dose-related psychotropic effect ([9]; lower dose appetite stimulant clinical trials): 8%
- patients reporting adverse experiences involving the CNS ([9]; patients with AIDS, placebo-controlled clinical trials): 33%

Compound: CCCCCc1cc(O)c2c(c1)OC(C)(C)[C@@H]1CCC(C)=C[C@@H]21 [THC, delta-9-tetrahydrocannabinol]
- prevention of glutamate toxicity [1]: prevented to some extent
- NMDA, AMPA and kainate receptor mediated neurotoxicity [1]: reduced
- antioxidant activity [3]: potent antioxidants
- reducing analgesia and inflammation [4]: least effective
- Mean (SD) change in total Ashworth score (baseline minus follow-up) ([10]; placebo 0.92 (6.56)): 1.86 (7.95)
- Mean (SD) change in Ashworth score, lower-body muscle groups ([10]; placebo 1.04 (4.20)): 1.39 (5.21)
- Mean (SD) change in Ashworth score, upper-body muscle groups ([10]; placebo −0.11 (4.04)): 0.48 (4.70)

Compound: CCCc1cc(O)c2c(c1)OC(C)(C)[C@@H]1CCC(C)=C[C@@H]21 [THCV]
- tolerability ([7]; 10 mg THCV per day): well tolerated
